Read-outs that look alike come from different tables or passages of the source.
Legend:
KDR kinase (790-1356 AA) = KDR kinase (790-1356 AA) (Homo sapiens (Human), UniProt P35968); experiment: Inhibitory activity at KDR kinase (Lance Ultra Ulight-TK assay); format: biochemical
Method in brief: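 Kinase (20 nM final) and compound were premixed 20 min at 30 °C, then phosphorylation ran 2 h at 30 °C with ATP at 90 μM and Ulight-TK substrate at 50 μM, pH 7.5, Mg2+ and Mn2+ present.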

B-Raf kinase = B-Raf kinase (Homo sapiens (Human), UniProt P15056); experiment: Inhibitory activity at B-Raf kinase (ADP-GLO assay); format: biochemical
Method in brief: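 B-Raf (5 nM) was preincubated with compound (0.25% DMSO final) for 20 min at 30 °C in 50 mM Hepes pH 7.5, 10 mM Mg²⁺, 1 mM EGTA, 2 mM DTT. Reaction with 6 μM ATP and 30 nM GST-MEK1 ran 2 hrs at 30 °C. ADP was detected by ADP-GLO luminescence, giving IC50 values.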

pERK in MDA-MB-231 cells = experiment: Inhibitory activity at pERK (In Cell Western, MDA-MB-231 cells); format: cell-based; conditions: Homo sapiens
Method in brief: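 pERK was measured by in-cell immunofluorescence (PI nuclear counterstain, Acumen read-out) in fixed MDA-MB-231 cells. Compound exposure lasted 2 h in DMEM with 0.1% BSA, using eight 3-fold dilutions starting at 30 μM final and 0.3% DMSO. IC50 values were derived from the resulting curves.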

PLC-PRF-5 cells = experiment: Inhibition of proliferation of PLC-PRF-5 cells (ATPlite); format: cell-based; conditions: Homo sapiens
Method in brief: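 Antiproliferative IC50 from luminescent ATP detection (ATPlite) after 96 h compound exposure at 37 °C. Cells grown in DMEM plus 10% FBS and allowed 2 h to settle, then dosed with eight 3-fold dilutions topping at 30 μM final, DMSO 0.3%.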

[1] = MDA-MB-231, MDA-MB-231 cells, read-out: MDA-MB-231 pERK IC50
[2] = PLC-PRF-5, PLC-PRF-5 cells, read-out: PLC-PRF-5 cell proliferation IC50
[3] = MDA-MB-231, read-out: MDA-MB-231 pERK IC50
[4] = PLC-PRF-5, read-out: PLC-PRF-5 cell proliferation IC50

Chain of KDR kinase (790-1356 AA) (P35968 790-1356): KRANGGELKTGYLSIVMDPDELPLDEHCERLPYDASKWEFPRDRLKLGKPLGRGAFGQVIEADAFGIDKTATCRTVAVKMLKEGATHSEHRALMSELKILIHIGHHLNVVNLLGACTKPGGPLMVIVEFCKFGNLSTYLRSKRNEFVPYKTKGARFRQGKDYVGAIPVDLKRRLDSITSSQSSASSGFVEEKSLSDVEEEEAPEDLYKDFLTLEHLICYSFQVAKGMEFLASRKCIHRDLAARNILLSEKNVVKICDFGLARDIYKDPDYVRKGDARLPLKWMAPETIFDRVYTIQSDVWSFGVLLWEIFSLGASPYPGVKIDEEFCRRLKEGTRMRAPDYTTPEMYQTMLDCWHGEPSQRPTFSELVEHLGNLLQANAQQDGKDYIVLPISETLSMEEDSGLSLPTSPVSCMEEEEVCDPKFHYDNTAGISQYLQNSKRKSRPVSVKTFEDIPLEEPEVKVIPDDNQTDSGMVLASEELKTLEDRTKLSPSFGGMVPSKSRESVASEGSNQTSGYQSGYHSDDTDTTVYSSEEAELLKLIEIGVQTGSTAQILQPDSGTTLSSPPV
Chain of B-Raf kinase (P15056 416-766): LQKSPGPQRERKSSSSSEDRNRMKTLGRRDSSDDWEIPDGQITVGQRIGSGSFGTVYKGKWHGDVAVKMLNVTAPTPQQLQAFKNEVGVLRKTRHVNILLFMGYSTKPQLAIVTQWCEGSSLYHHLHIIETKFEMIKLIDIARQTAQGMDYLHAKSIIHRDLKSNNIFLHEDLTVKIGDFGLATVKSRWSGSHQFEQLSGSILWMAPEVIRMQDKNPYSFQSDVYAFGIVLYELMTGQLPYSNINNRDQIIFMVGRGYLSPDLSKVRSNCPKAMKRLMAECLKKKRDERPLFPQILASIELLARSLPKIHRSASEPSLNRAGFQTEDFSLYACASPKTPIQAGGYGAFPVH

Q: Which IC50 (KDR kinase (790-1356 AA)) does the source give for `CC(F)(F)c1ccnc(NC(=O)Nc2ccc(Oc3ccnc(NC(=O)C4CC4)c3)cc2)c1` [Exe. 147] here?
A: The IC50 was 0.0111 µM.

Q: And the IC50 (B-Raf kinase)?
A: Its IC50 is 0.015 µM.

Q: And the IC50 (pERK in MDA-MB-231 cells; [1])?
A: Its IC50 is 0.0238 µM.

Q: And the IC50 (PLC-PRF-5 cells; [2])?
A: Its IC50 is 1.16 µM.

Q: Which results are given for `Cc1cc(Oc2ccnc(NC(=O)C3CC3)c2)ccc1NC(=O)Nc1ccc(F)c(OC(F)(F)F)c1` [Exe. 196]?
A: IC50 (KDR kinase (790-1356 AA)): 0.0118 µM; IC50 (B-Raf kinase): 0.013 µM; IC50 (pERK in MDA-MB-231 cells; [1]): 0.0146 µM; IC50 (PLC-PRF-5 cells; [2]): 2.5 µM

Q: Which IC50 (KDR kinase (790-1356 AA)) does the source give for `O=C(Nc1ccc(Oc2ccnc(NC(=O)C3CC3)c2)cc1)Nc1ccc(Cl)c(C(F)(F)F)c1` [Exe. 137] here?
A: The IC50 was 0.0102 µM.

Q: What about the IC50 (B-Raf kinase) of the same compound?
A: Its IC50 is 0.0113 µM.

Q: What about the IC50 (pERK in MDA-MB-231 cells; [1]) of the same compound?
A: Its IC50 is 0.0078 µM.

Q: What about the IC50 (PLC-PRF-5 cells; [2]) of the same compound?
A: Its IC50 is 5.96 µM.

Q: With `N#Cc1ccc(NC(=O)Nc2ccc(Oc3ccnc(NC(=O)C4CC4)c3)cn2)cc1C(F)(F)F` [Exe. 133] as the compound, how does the IC50 (KDR kinase (790-1356 AA)) read?
A: Its IC50 is 0.0091 µM.

Q: What about the IC50 (B-Raf kinase) of the same compound?
A: Its IC50 is 0.025 µM.

Q: And the IC50 (pERK in MDA-MB-231 cells; [3])?
A: The IC50 was 0.0236 µM.

Q: What about the IC50 (PLC-PRF-5 cells; [4]) of the same compound?
A: The IC50 was 1.02 µM.

Q: How did the IC50 (KDR kinase (790-1356 AA)) turn out when `O=C(Nc1ccc(Oc2ccnc(NC(=O)C3CC3)c2)cc1F)Nc1cc(C(F)(F)F)ccc1Cl` [Exe. 210] was run?
A: The IC50 was 0.0118 µM.

Q: What about the IC50 (B-Raf kinase) of the same compound?
A: The IC50 was 0.019 µM.

Q: And the IC50 (pERK in MDA-MB-231 cells; [1])?
A: The IC50 was 0.017 µM.

Q: What about the IC50 (PLC-PRF-5 cells; [2]) of the same compound?
A: Its IC50 is 0.636 µM.

Q: With `CN1CC(Oc2cc(NC(=O)Nc3ccc(Oc4ccnc(NC(=O)C5CC5)c4)cc3)cc(C(F)(F)F)c2)C1` [Exe. 241, N-[4-[4-[[3-(1-methylazetidin-3-yl)oxy-5-(trifluoromethyl)phenyl]carbamoylamino]phenoxy]-2-pyridyl]cyclopropanecarboxamide] as the compound, how does the IC50 (KDR kinase (790-1356 AA)) read?
A: The IC50 was 0.0179 µM.

Q: And the IC50 (B-Raf kinase)?
A: Its IC50 is 0.0091 µM.

Q: What about the IC50 (pERK in MDA-MB-231 cells; [1]) of the same compound?
A: The IC50 was 0.0615 µM.

Q: And the IC50 (PLC-PRF-5 cells; [2])?
A: Its IC50 is 1.77 µM.

Q: Which results are given for `CC1(C(=O)Nc2cc(Oc3ccc(NC(=O)Nc4ccc(Cl)c(C(F)(F)F)c4)cc3F)ccn2)CC1` [Exe. 028]?
A: IC50 (KDR kinase (790-1356 AA)): 0.0127 µM; IC50 (B-Raf kinase): 0.021 µM; IC50 (pERK in MDA-MB-231 cells; [1]): 0.391 µM; IC50 (PLC-PRF-5 cells; [2]): 2.49 µM

Q: Which results are given for `O=C(Nc1cc(F)cc(Oc2ccnc(NC(=O)C3CC3)c2)c1)Nc1ccc(Cl)c(C(F)(F)F)c1` [Exe. 024]?
A: IC50 (KDR kinase (790-1356 AA)): 0.0338 µM; IC50 (B-Raf kinase): 0.0051 µM; IC50 (pERK in MDA-MB-231 cells; [1]): 0.0195 µM; IC50 (PLC-PRF-5 cells; [2]): 4.24 µM

Q: What does the source list for `N#Cc1ccc(NC(=O)Nc2ccc(Oc3ccnc(NC(=O)C4CC4)c3)cc2F)cc1Cl` [Exe. 221]?
A: IC50 (KDR kinase (790-1356 AA)): 0.0067 µM; IC50 (B-Raf kinase): 0.011 µM; IC50 (pERK in MDA-MB-231 cells; [3]): 0.0078 µM; IC50 (PLC-PRF-5 cells; [4]): 1.27 µM

Q: Which results are given for `Cc1ccc(Oc2ccnc(NC(=O)C3CC3)c2)cc1NC(=O)Nc1cc(C(C)(F)F)ccc1F` [Exe. 227]?
A: IC50 (KDR kinase (790-1356 AA)): 0.0172 µM; IC50 (B-Raf kinase): 0.027 µM; IC50 (pERK in MDA-MB-231 cells; [1]): 0.0344 µM; IC50 (PLC-PRF-5 cells; [2]): 17.8 µM

Q: How did the IC50 (KDR kinase (790-1356 AA)) turn out when `O=C(Nc1ccc(Oc2ccnc(NC(=O)C3CC3)c2)c(F)c1)Nc1cc(C(F)(F)F)ccc1Cl` [Exe. 157] was run?
A: The IC50 was 0.0059 µM.

Q: What about the IC50 (B-Raf kinase) of the same compound?
A: The IC50 was 0.043 µM.

Q: What about the IC50 (pERK in MDA-MB-231 cells; [1]) of the same compound?
A: Its IC50 is 0.0347 µM.

Q: What about the IC50 (PLC-PRF-5 cells; [2]) of the same compound?
A: The IC50 was 0.156 µM.

Q: How did the IC50 (KDR kinase (790-1356 AA)) turn out when `O=C(Nc1cc(N2CC(F)(F)C2)cc(C(F)(F)F)c1)Nc1ccc(Oc2ccnc(NC(=O)C3CC3)c2)cc1F` [Exe. 212] was run?
A: Its IC50 is 0.0055 µM.

Q: And the IC50 (B-Raf kinase)?
A: The IC50 was 0.0201 µM.

Q: What about the IC50 (pERK in MDA-MB-231 cells; [1]) of the same compound?
A: Its IC50 is 0.0211 µM.

Q: What about the IC50 (PLC-PRF-5 cells; [2]) of the same compound?
A: Its IC50 is 0.177 µM.

Q: With `CC(F)(F)c1cc(NC(=O)Nc2ccc(Oc3cc(NC(=O)C4CC4)ncn3)c(F)c2)ccc1Cl` [Exe. 105] as the compound, how does the IC50 (KDR kinase (790-1356 AA)) read?
A: Its IC50 is 0.0113 µM.

Q: What about the IC50 (B-Raf kinase) of the same compound?
A: Its IC50 is 0.153 µM.

Q: And the IC50 (pERK in MDA-MB-231 cells; [1])?
A: Its IC50 is 0.0855 µM.

Q: What about the IC50 (PLC-PRF-5 cells; [2]) of the same compound?
A: Its IC50 is 1.9 µM.

Q: How did the IC50 (KDR kinase (790-1356 AA)) turn out when `Cc1cc(Oc2ccnc(NC(=O)C3CC3)c2)ccc1NC(=O)Nc1cc(OC(F)(F)F)ccc1F` [Exe. 195] was run?
A: The IC50 was 0.0061 µM.

Q: And the IC50 (B-Raf kinase)?
A: The IC50 was 0.013 µM.

Q: And the IC50 (pERK in MDA-MB-231 cells; [1])?
A: The IC50 was 0.0101 µM.

Q: And the IC50 (PLC-PRF-5 cells; [2])?
A: The IC50 was 0.79 µM.

Q: `Cc1cc(NC(=O)Nc2ccc(Cl)c(C(F)(F)F)c2)cnc1Oc1ccnc(NC(=O)C2CC2)c1` [Exe. 017] was tested. Which IC50 (KDR kinase (790-1356 AA)) did it give?
A: Its IC50 is 0.0292 µM.

Q: And the IC50 (B-Raf kinase)?
A: The IC50 was 0.0157 µM.

Q: What about the IC50 (pERK in MDA-MB-231 cells; [1]) of the same compound?
A: Its IC50 is 0.0188 µM.

Q: What about the IC50 (PLC-PRF-5 cells; [2]) of the same compound?
A: The IC50 was 2.82 µM.

Q: Which results are given for `O=C(Nc1ccc(Oc2ccnc(NC(=O)C3CC3)c2)cc1F)Nc1cc(C(F)(F)F)ccc1F` [Exe. 209]?
A: IC50 (KDR kinase (790-1356 AA)): 0.0084 µM; IC50 (B-Raf kinase): 0.009 µM; IC50 (pERK in MDA-MB-231 cells; [1]): 0.0059 µM; IC50 (PLC-PRF-5 cells; [2]): 0.051 µM

Q: Which results are given for `O=C(Nc1ccc(Oc2ccnc(NC(=O)C3CC3)c2)cc1)Nc1ccc(F)c(C(F)(F)F)c1` [Exe. 138]?
A: IC50 (KDR kinase (790-1356 AA)): 0.0105 µM; IC50 (B-Raf kinase): 0.026 µM; IC50 (pERK in MDA-MB-231 cells; [1]): 0.0091 µM; IC50 (PLC-PRF-5 cells; [2]): 1.51 µM

Q: Which results are given for `COc1ccc(NC(=O)Nc2cnc(Oc3ccnc(NC(=O)C4CC4)c3)c(C)c2)cc1C(F)(F)F` [Exe. 125]?
A: IC50 (KDR kinase (790-1356 AA)): 0.0087 µM; IC50 (B-Raf kinase): 0.0086 µM; IC50 (pERK in MDA-MB-231 cells; [1]): 0.0047 µM; IC50 (PLC-PRF-5 cells; [2]): 1.72 µM

— US9359338B2, “Cyclopropanecarboxamido-substitute aromatic compounds as anti-tumor agents” (Crown Bioscience Inc. (Taiwan), priority 2012, dated 2016)
